Results from US20260184687A1, “DIHYDROINDENE DERIVATIVES AS MALT1 INHIBITORS” (C4X Discovery Limited, priority 2022, published 2026).
Structures can show the parent of a compound that is named as a salt. Where two headings read alike, the source gives them in different places.

How the values were obtained:
FL hMALT1 enzyme [1] = molecular target: T1, FL hMALT1 enzyme (Homo sapiens, UniProt Q9UDY8); assay: biochemical;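 also: Cell-free protease assay: enzyme preincubated with compound 30 min at room temperature, then cleavage of fluorogenic Ac-LVSR-AMC substrate (100 µM) tracked by fluorescence (ex 360/em 460 nm)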
T1 sequence (Q9UDY8 1-824): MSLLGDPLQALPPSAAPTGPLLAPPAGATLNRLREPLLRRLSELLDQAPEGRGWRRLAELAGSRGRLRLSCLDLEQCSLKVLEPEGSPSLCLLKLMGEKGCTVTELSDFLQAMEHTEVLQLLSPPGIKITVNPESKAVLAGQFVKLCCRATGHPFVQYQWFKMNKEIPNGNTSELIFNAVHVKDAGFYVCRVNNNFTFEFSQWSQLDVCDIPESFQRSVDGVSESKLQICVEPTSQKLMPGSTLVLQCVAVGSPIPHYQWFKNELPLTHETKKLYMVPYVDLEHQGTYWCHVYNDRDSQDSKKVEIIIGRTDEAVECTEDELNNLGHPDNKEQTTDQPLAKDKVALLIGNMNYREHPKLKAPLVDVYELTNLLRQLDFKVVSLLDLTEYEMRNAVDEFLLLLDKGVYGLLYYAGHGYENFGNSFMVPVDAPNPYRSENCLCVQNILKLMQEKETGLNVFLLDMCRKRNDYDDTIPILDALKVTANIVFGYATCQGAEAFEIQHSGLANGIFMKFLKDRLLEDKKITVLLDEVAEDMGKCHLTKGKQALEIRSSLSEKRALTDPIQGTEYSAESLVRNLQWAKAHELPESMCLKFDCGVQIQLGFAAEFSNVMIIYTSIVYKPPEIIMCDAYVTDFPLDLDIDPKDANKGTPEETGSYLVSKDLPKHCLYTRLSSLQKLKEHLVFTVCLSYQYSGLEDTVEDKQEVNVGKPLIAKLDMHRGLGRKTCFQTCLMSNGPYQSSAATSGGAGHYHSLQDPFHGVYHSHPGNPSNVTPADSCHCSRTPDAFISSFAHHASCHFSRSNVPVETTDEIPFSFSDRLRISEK

[2] = test system: IL-2 release from stimulated Jurkat cells; assay: Human IL-2 Release Phenotypic Assay (Assay 3); format: cell-based; conditions: Jurkat cells (clone E6-1), 200 ng/mL PMA + 300 ng/mL ionomycin, IL-2 by ELISA
Method in brief: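 IC50 values were fitted by 4-parameter non-linear regression to IL-2 release from Jurkat E6-1 cells. Those cells were stimulated for 48 h with PMA (200 ng/mL) plus ionomycin (300 ng/mL) after a 30-min compound pre-incubation at half-log doses in 0.5% DMSO. Cells had been plated at 50 000/well overnight at 37° C.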

[3] = molecular target: T2, MALT1-GS-Ub (6-His-hMALT-1 residues 339-715 fused to ubiquitin) (Homo sapiens, UniProt Q9UDY8);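 also: in vitro MALT1 protease assay: enzyme preincubated with compound 30 min at room temperature, then cleavage of fluorogenic Ac-LVSR-AMC substrate (100 µM) followed by fluorescence every 15 min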
T2 sequence (Q9UDY8 with tags, fused parts or gaps limits assumed): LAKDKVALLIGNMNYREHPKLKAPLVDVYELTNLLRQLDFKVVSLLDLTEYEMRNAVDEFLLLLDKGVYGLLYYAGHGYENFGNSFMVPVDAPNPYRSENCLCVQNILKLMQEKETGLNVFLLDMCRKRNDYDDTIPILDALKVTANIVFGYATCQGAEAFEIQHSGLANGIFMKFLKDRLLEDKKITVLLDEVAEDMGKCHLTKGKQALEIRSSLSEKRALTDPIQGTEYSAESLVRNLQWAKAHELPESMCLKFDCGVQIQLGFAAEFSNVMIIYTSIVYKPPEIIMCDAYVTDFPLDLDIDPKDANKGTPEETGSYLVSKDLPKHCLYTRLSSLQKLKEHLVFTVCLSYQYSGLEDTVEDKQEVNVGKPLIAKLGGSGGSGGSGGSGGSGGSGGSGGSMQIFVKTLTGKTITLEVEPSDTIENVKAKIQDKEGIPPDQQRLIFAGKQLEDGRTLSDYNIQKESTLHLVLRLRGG
Procedure: (§1) MALT1 protease activity was assessed in vitro by measuring the cleavage of a fluorogenic tetrapeptide substrate.
(§2) A protein (MALT1-GS-Ub) comprising 6-His-hMALT-1 (residues 339-715), fused to ubiquitin with an 8×GGS linker, was expressed in E. coli, and purified using chitin resin to remove contaminants followed by affinity chromatography purification and size-exclusion chromatography, according to standard protocols.
(§3) Briefly, MALT1-GS-Ub (300-600 nM) was incubated with substrate (Ac-LVSR-AMC, 100 μM) in reaction buffer comprising 50 mM HEPES (pH7.0), 25 mM KCl, 0.1% (v/v) CHAPS and 1 mM TCEP.
(§4) Test compounds dissolved in DMSO were dispensed into assay plates (384-well, black, shallow ProxiPlates). 7 μl enzyme solution was added and incubated at room temperature for 30 minutes to allow compound binding to occur. 2 μl substrate solution was then added and the fluorescence (excitation 360 nm, emission 460 nm) read every 15 minutes using a suitable plate reader. Final assay DMSO concentration was 1%. […] IC50 values were calculated using GraphPad Prism using a 4-parameter non-linear regression curve fit.

FL hMALT1 enzyme [4] = molecular target: T1, FL hMALT1 enzyme
[5] = molecular target: T2, MALT1-GS-Ub (6-His-hMALT-1 residues 339-715 fused to ubiquitin); assay: biochemical
Procedure: as §1, §2, §3, §4

IC50 (FL hMALT1 enzyme [1])	IC50 ([2]; 48 hours)	IC50 [3]	IC50 (FL hMALT1 enzyme [4])	IC50 [5]	IC50 ([2]; Homo sapiens, Jurkat, 48 h)	SMILES
0.05 µM	0.62 µM	0.14 µM				CN(C(=O)C1CCS(=O)(=O)CC1)[C@@H](c1ccc(NC2Cc3ccccc3C2(C)C)cc1)C(F)(F)F (single isomer, unassigned) [Example 2]
0.034 µM	0.069 µM	0.14 µM				CN(C(=O)c1cnco1)[C@@H](c1ccc(NC2Cc3ccccc3C2(C)C)cc1)C(F)(F)F (single isomer, unassigned) [Example 4]
0.027 µM	0.061 µM	0.16 µM				CC(=O)NCCC(=O)N(C)[C@@H](c1ccc(NC2Cc3ccccc3C2(C)C)cc1)C(F)(F)F (single isomer, unassigned) [Example 25]
	0.5 µM		0.039 µM	0.27 µM		CN(C(=O)C1CCS(=O)(=O)CC1)[C@@H](c1ccc(NC2Cc3ccccc3C2(C)C)nc1)C(F)(F)F (single isomer, unassigned) [Example 37]
0.42 µM	0.36 µM			0.26 µM		CN(C(=O)C1CCS(=O)(=O)CC1)[C@@H](c1ccc(NC2Cc3cc(Cl)ccc3C2(C)C)cc1)C(F)(F)F (single isomer, unassigned) [Example 152]
0.067 µM	0.12 µM			0.19 µM		CN(C(=O)C1CCS(=O)(=O)CC1)[C@@H](c1ccc(NC2Cc3cc(Cl)ccc3C2(C)C)cc1)C(F)(F)F (single isomer, unassigned) [Example 153]
	0.21 µM	0.24 µM	0.006 µM			CC1c2ccccc2CC1Nc1ccc([C@H](N(C)C(=O)C2CCS(=O)(=O)CC2)C(F)(F)F)cc1 (stereo in doubt) [Example 9, N-Methyl-N—((S)-2,2,2-trifluoro-1-(4-(((1,2-trans)-1-methyl-2,3-dihydro-1H-inden-2-yl)amino)phenyl)ethyl)tetrahydro-2H-thiopyran-4-carboxamide 1,1-dioxide]
	> 10 µM	3.89 µM	1.2 µM			COC1c2ccccc2CC1Nc1ccc([C@H](N(C)C(=O)C2CCS(=O)(=O)CC2)C(F)(F)F)cc1 (stereo in doubt) [Example 11, N-Methyl-N—((S)-2,2,2-trifluoro-1-(4-(((1,2-trans)-1-methoxy-2,3-dihydro-1H-inden-2-yl)amino)phenyl)ethyl)tetrahydro-2H-thiopyran-4-carboxamide 1,1-dioxide]
0.016 µM				0.21 µM	0.56 µM	CC1c2ccccc2C(C)C1Nc1ccc([C@H](N(C)C(=O)C2CCS(=O)(=O)CC2)C(F)(F)F)cc1 (stereo partly drawn) [Example 38, N-((1S)-1-(4-((1,3-Dimethyl-2,3-dihydro-1H-inden-2-yl)amino)phenyl)-2,2,2-trifluoroethyl)-N-methyltetrahydro-2H-thiopyran-4-carboxamide 1,1-dioxide]
0.053 µM				0.21 µM	1.1 µM	CN(C(=O)OC1CNC1)[C@@H](c1ccc(NC2Cc3ccccc3C2(C)C)cc1)C(F)(F)F (stereo partly drawn) [Example 60, Azetidin-3-yl ((1S)-1-(4-((1,1-dimethyl-2,3-dihydro-1H-inden-2-ylamino)phenyl)-2,2,2-trifluoroethyl)(methyl)carbamate Hydrochloride]
0.22 µM				0.27 µM	0.52 µM	CN(C(=O)C1CNC1)[C@@H](c1ccc(NC2Cc3ccccc3C2(C)C)cc1)C(F)(F)F (stereo partly drawn) [Example 72, N-((1S)-1-(4-((1,1-Dimethyl-2,3-dihydro-1H-inden-2-yl)amino)phenyl)-2,2,2-trifluoroethyl)-N-methylazetidine-3-carboxamide Hydrochloride]
			0.088 µM		0.47 µM	CC(=O)NC12CC(C(=O)N(C)[C@@H](c3ccc(N[C@H]4Cc5ccccc5C4(C)C)cn3)C(F)(F)F)(C1)C2 [Example 179, 3-Acetamido-N—((S)-1-(5-(((S)-1,1-dimethyl-2,3-dihydro-1H-inden-2-yl)amino)pyridin-2-yl)-2,2,2-trifluoroethyl)-N-methylbicyclo[1.1.1]pentane-1-carboxamide]
